Assay results taken from US20250271426A1, “REDUCTION OF BITTER TASTE OF ACTIVE PHARMACEUTICAL INGREDIENTS AND RELATED ASSAYS AND SCREENING METHODS” (Firmenich Incorporated, priority 2022, published 2025).

Legend:
Experiment in all cases: FLIPR calcium assay, cells with promiscuous G protein transfected with bitter receptor cDNA
Type in all cases: cell-based
Details in all cases: responsive if cellular response of >10% over baseline, Fluo4-AM
[1] = target: T1, T2R receptor SEQ ID NO: 6 (S6) (Homo sapiens, UniProt P59540)
T1 construct: expressed in transfected cells; host or cells: cells expressing a promiscuous G protein (e.g., G16g44)
T1 sequence (P59540 1-309): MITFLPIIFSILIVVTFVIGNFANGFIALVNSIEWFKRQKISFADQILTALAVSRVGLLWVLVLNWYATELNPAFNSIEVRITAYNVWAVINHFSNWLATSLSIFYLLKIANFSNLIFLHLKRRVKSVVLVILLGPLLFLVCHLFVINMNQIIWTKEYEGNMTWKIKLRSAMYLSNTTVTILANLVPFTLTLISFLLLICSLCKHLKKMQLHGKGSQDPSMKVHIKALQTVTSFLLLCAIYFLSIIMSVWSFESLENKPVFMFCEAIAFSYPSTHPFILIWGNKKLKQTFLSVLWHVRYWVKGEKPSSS
Protocol: (§1) Cells expressing a promiscuous G protein (e.g., G16g44) were transfected with vectors encoding 22 functional bitter receptor cDNAs, with one receptor per transfection. The cells were transfected directly in 384-well format high-density plates and incubated for 28 hours. Later, cells were loaded with the Ca-specific dye Fluo4-AM. After an incubation of 60 minutes, excess dye is washed off, and cells are stimulated with respective bitter agonists while simultaneously recording changes in intracellular fluorescence using a FLIPR instrument.
(§2) The above protocol was carried out using 94 different active pharmaceutical ingredients (APIs) that span a wide range of different APIs having a diversity of chemical structures. A particular T2R receptor was identified as being responsive to a particular API if it triggered a cellular response of >10% over baseline.

[2] = target: T2, T2R receptor SEQ ID NO: 1 (S1) (Homo sapiens, UniProt Q9NYW7)
T2 construct: expressed in transfected cells; host or cells: cells expressing a promiscuous G protein (e.g., G16g44)
T2 sequence (Q9NYW7 1-299): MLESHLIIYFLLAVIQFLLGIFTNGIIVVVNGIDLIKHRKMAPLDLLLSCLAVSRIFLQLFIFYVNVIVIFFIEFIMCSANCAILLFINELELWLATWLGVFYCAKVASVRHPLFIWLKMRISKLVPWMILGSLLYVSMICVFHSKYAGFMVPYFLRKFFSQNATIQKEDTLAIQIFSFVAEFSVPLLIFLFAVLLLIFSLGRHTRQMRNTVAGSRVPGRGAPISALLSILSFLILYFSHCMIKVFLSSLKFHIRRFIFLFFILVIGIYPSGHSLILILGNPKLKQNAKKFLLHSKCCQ
Protocol: as §1, §2

[3] = target: T3, T2R receptor SEQ ID NO: 3 (S3) (Homo sapiens, UniProt Q9NYW0, T156M)
T3 construct: expressed in transfected cells; host or cells: cells expressing a promiscuous G protein (e.g., G16g44)
T3 sequence (Q9NYW0 1-307 T156M): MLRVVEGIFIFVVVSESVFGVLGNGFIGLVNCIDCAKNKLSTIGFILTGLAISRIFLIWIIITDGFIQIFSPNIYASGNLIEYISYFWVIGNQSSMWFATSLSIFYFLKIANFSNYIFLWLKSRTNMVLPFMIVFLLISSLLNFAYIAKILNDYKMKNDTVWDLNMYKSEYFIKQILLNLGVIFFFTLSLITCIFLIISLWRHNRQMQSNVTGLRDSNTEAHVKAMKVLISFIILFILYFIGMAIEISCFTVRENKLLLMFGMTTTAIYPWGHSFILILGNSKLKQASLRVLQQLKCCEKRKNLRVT
Protocol: as §1, §2

[4] = target: T4, T2R receptor SEQ ID NO: 4 (S4) (Homo sapiens, UniProt Q9NYV8)
T4 construct: expressed in transfected cells; host or cells: cells expressing a promiscuous G protein (e.g., G16g44)
T4 sequence (Q9NYV8 1-317): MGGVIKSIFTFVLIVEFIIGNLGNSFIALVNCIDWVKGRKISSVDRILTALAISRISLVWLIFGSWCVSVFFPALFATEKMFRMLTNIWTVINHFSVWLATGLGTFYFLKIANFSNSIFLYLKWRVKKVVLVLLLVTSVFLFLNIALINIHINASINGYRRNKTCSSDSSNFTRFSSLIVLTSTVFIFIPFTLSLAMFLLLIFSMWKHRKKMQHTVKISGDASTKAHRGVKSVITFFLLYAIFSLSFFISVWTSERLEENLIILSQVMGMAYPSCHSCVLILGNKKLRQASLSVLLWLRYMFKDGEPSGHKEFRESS
Protocol: as §1, §2

SMILES	S6 positive response of T2R receptor to API [1]	S3 positive response of T2R receptor to API [3]	S4 positive response of T2R receptor to API [4]	further results
CCN1CCN(Cc2ccc(Nc3ncc(F)c(-c4cc(F)c5nc(C)n(C(C)C)c5c4)n3)nc2)CC1 [Abamaciclib]	+ (a “+” to indicate whether a particular T2R receptor showed a positive response to a particular API)			
CC1(C)S[C@@H]2[C@H](NC(=O)[C@H](N)c3ccc(O)cc3)C(=O)N2[C@H]1C(=O)O [Amoxicillin]				S1 positive response of T2R receptor to API [2]: + (a “+” to indicate whether a particular T2R receptor showed a positive response to a particular API)
COc1ccc(-n2nc(C(N)=O)c3c2C(=O)N(c2ccc(N4CCCCC4=O)cc2)CC3)cc1 [Apixaban]		+ (a “+” to indicate whether a particular T2R receptor showed a positive response to a particular API)		
Cn1cnc([N+](=O)[O-])c1Sc1ncnc2nc[nH]c12 [Azathioprine]	+ (a “+” to indicate whether a particular T2R receptor showed a positive response to a particular API)	+ (a “+” to indicate whether a particular T2R receptor showed a positive response to a particular API)		
CN1CCCC(n2nc(Cc3ccc(Cl)cc3)c3ccccc3c2=O)CC1 (stereo not drawn) [Azelastine]	+ (a “+” to indicate whether a particular T2R receptor showed a positive response to a particular API)	+ (a “+” to indicate whether a particular T2R receptor showed a positive response to a particular API)		
Cn1c(=O)c2c(ncn2C)n(C)c1=O [Caffeine]	+ (a “+” to indicate whether a particular T2R receptor showed a positive response to a particular API)	+ (a “+” to indicate whether a particular T2R receptor showed a positive response to a particular API)	+ (a “+” to indicate whether a particular T2R receptor showed a positive response to a particular API)	
CCCC(C)(COC(N)=O)COC(=O)NC(C)C (stereo not drawn) [Carisoprodol]			+ (a “+” to indicate whether a particular T2R receptor showed a positive response to a particular API)	
O=C(O)c1cn(C2CC2)c2cc(N3CCNCC3)c(F)cc2c1=O [Ciprofloxacin]	+ (a “+” to indicate whether a particular T2R receptor showed a positive response to a particular API)			
Nc1ccc(S(=O)(=O)c2ccc(N)cc2)cc1 [Dapsone]		+ (a “+” to indicate whether a particular T2R receptor showed a positive response to a particular API)		
O=C(O)Cc1ccccc1Nc1c(Cl)cccc1Cl [Diclofenac]			+ (a “+” to indicate whether a particular T2R receptor showed a positive response to a particular API)	
CCn1cc(C(=O)O)c(=O)c2cc(F)c(N3CCNCC3)nc21 [Enoxacin]	+ (a “+” to indicate whether a particular T2R receptor showed a positive response to a particular API)			
CCCCc1ncc(/C=C(\Cc2cccs2)C(=O)O)n1Cc1ccc(C(=O)O)cc1 [Eprosartan]				S1 positive response of T2R receptor to API [2]: + (a “+” to indicate whether a particular T2R receptor showed a positive response to a particular API)
O=C(O)c1ccccc1Nc1cccc(C(F)(F)F)c1 [Flufenamic Acid]			+ (a “+” to indicate whether a particular T2R receptor showed a positive response to a particular API)	
COCCCC/C(=N\OCCN)c1ccc(C(F)(F)F)cc1 [Fluvoxamine]				S1 positive response of T2R receptor to API [2]: + (a “+” to indicate whether a particular T2R receptor showed a positive response to a particular API)
CCC1=C(C)CN(C(=O)NCCc2ccc(S(=O)(=O)NC(=O)N[C@H]3CC[C@H](C)CC3)cc2)C1=O [Glimepiride]			+ (a “+” to indicate whether a particular T2R receptor showed a positive response to a particular API)	
O=C(CCCN1CCC(O)(c2ccc(Cl)cc2)CC1)c1ccc(F)cc1 [Haloperidol]		+ (a “+” to indicate whether a particular T2R receptor showed a positive response to a particular API)	+ (a “+” to indicate whether a particular T2R receptor showed a positive response to a particular API)	
NS(=O)(=O)c1cc2c(cc1Cl)NCNS2(=O)=O [Hydrochlorothiazide]	+ (a “+” to indicate whether a particular T2R receptor showed a positive response to a particular API)	+ (a “+” to indicate whether a particular T2R receptor showed a positive response to a particular API)		
C[C@]12CCC(=O)C=C1CC[C@@H]1[C@@H]2[C@@H](O)C[C@@]2(C)[C@H]1CC[C@]2(O)C(=O)CO [Hydrocortisone]	+ (a “+” to indicate whether a particular T2R receptor showed a positive response to a particular API)			
CN1CCC(C(=O)c2cccc(NC(=O)c3c(F)cc(F)cc3F)n2)CC1 [Lasmitidan]	+ (a “+” to indicate whether a particular T2R receptor showed a positive response to a particular API)	+ (a “+” to indicate whether a particular T2R receptor showed a positive response to a particular API)		
CCN(CC)CC(=O)Nc1c(C)cccc1C [Lidocaine]		+ (a “+” to indicate whether a particular T2R receptor showed a positive response to a particular API)	+ (a “+” to indicate whether a particular T2R receptor showed a positive response to a particular API)	
Cc1cccc(Nc2ccccc2C(=O)O)c1C [Mefenamic Acid]			+ (a “+” to indicate whether a particular T2R receptor showed a positive response to a particular API)	
Clc1ccc(COC(Cn2ccnc2)c2ccc(Cl)cc2Cl)c(Cl)c1 (stereo not drawn) [Micronazole]			+ (a “+” to indicate whether a particular T2R receptor showed a positive response to a particular API)	
O=C(O)c1cccnc1Nc1cccc(C(F)(F)F)c1 [Niflumic Acid]			+ (a “+” to indicate whether a particular T2R receptor showed a positive response to a particular API)	
COc1ccc(Cc2nccc3cc(OC)c(OC)cc23)cc1OC [Papaverine]		+ (a “+” to indicate whether a particular T2R receptor showed a positive response to a particular API)	+ (a “+” to indicate whether a particular T2R receptor showed a positive response to a particular API)	
Cc1cccn2c(=O)c(-c3nnn[nH]3)cnc12 [Pemirolast]			+ (a “+” to indicate whether a particular T2R receptor showed a positive response to a particular API)	
C=CCC1(C(C)CCC)C(=O)NC(=O)NC1=O (stereo not drawn) [Secobarbital Sodium]			+ (a “+” to indicate whether a particular T2R receptor showed a positive response to a particular API)	
c1ccc(CC2=NCCN2)cc1 [Tolazoline]	+ (a “+” to indicate whether a particular T2R receptor showed a positive response to a particular API)	+ (a “+” to indicate whether a particular T2R receptor showed a positive response to a particular API)		
COc1ccc(C(CN(C)C)C2(O)CCCCC2)cc1 (stereo not drawn) [Venlafaxine]	+ (a “+” to indicate whether a particular T2R receptor showed a positive response to a particular API)	+ (a “+” to indicate whether a particular T2R receptor showed a positive response to a particular API)		
